The results in this text go back to patent US10562859B2, “Aryl sulfonamide compounds as carbonic anhydrase inhibitors and their therapeutic use” (SignalChem LifeSciences Corporation, priority 2015, dated 2020).

One test addresses recombinant human CAIX (Homo sapiens, UniProt Q16790). Put plainly: Stopped-flow CA-catalyzed CO2 hydration assay, CAIX. It counts as biochemical. Conditions: pH 7.4, inhibitor and enzyme pre-incubated 15 minutes at room temperature. The procedure:
(§1) An Applied Photophysics stopped-flow instrument was used for assaying the CA-catalyzed CO2 hydration activity. […] The CO2 concentrations ranged from 1.7 to 17 mM for the determination of the kinetic parameters and inhibition constants. For each inhibitor, at least six traces of the initial 5-10% of the reaction were used for determining the initial velocity. The uncatalyzed rates were determined in the same manner and subtracted from the total observed rates. Stock solutions of inhibitor (10 mM) were prepared in distilled-deionized water, and dilutions up to 0.01 nM were done thereafter with distilled-deionized water. Inhibitor and enzyme solutions were pre-incubated together for 15 minutes at room temperature prior to assay in order to allow for the formation of the E-I complex. The inhibition constants were obtained by nonlinear least-squares methods using PRISM 3, whereas the kinetic parameters for the uninhibited enzymes were from Lineweaver-Burk plots, and represent the mean from at least three different determinations.

The next test concerns the target recombinant human CAXII (Homo sapiens, UniProt O43570). As to the kind of experiment: Stopped-flow CA-catalyzed CO2 hydration assay, CAXII. It counts as biochemical. Conditions: pH 7.4, inhibitor and enzyme pre-incubated 15 minutes at room temperature. The method, then: as §1

recombinant human CAXII, sequence (O43570 25-354): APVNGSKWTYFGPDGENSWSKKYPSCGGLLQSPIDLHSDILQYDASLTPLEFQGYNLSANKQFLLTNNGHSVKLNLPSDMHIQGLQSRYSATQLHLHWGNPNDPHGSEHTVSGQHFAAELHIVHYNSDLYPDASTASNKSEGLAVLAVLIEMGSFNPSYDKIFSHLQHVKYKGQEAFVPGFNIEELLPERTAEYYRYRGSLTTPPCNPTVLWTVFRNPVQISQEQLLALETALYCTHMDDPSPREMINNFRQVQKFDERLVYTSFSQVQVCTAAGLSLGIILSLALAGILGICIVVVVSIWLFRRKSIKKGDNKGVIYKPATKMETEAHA

`NS(=O)(=O)c1ccc(N2CCN(C3CCCCC3)C2=O)cc1` [Example 5, 4-(3-cyclohexyl-2-oxoimidazolidin-1-yl)benzenesulfonamide]: the “Ki (nM) CAIX” value on recombinant human CAIX was “++ (“++” represents the 100 nM<Ki<10 nM)”. The “Ki (nM) CAXII” value at recombinant human CAXII is “++ (“++” represents the 100 nM<Ki<10 nM)”.

Take `NS(=O)(=O)c1ccc(N2CCN(c3cc(C(F)(F)F)ccc3F)C2=O)cc1` [Example 13, 4-(3-(2-fluoro-5-(trifluoromethyl)phenyl)-2-oxoimidazolidin-1-yl)benzenesulfonamide]: the inhibition constant (Ki) at recombinant human CAIX and at recombinant human CAXII was < 10 nM in each case.

In the case of `NS(=O)(=O)c1ccc(N2CCN(CC3CC3)C2=O)cc1` [Example 10, 4-(3-(cyclopropylmethyl)-2-oxoimidazolidin-1-yl)benzenesulfonamide], the inhibition constant (Ki) on recombinant human CAIX and on recombinant human CAXII was < 10 nM each time.

For the compound `CCCCOc1ccc(N2CCN(c3ccc(S(N)(=O)=O)cc3)C2=O)c(F)c1` [Example 26, 4-(3-(4-butoxy-2-fluorophenyl)-2-oxoimidazolidin-1-yl)benzenesulfonamide], the Ki (in general, a measure of affinity in units of concentration, obtained from inhibition or displacement) on recombinant human CAIX is < 10 nM. The “Ki (nM) CAXII” value at recombinant human CAXII is on record as “++ (“++” represents the 100 nM<Ki<10 nM)”.

With `Cc1cc(C)cc(N2CCN(c3ccc(S(N)(=O)=O)cc3)C2=O)c1` [Example 2, 4-(3-(3,5-dimethylphenyl)-2-oxoimidazolidin-1-yl)benzenesulfonamide], the “Ki (nM) CAIX” value at recombinant human CAIX is on record as “++ (“++” represents the 100 nM<Ki<10 nM)”. In addition, the “Ki (nM) CAXII” value on recombinant human CAXII is on record as “++ (“++” represents the 100 nM<Ki<10 nM)”.

Turning to `NS(=O)(=O)c1ccc(N2CCN(c3ccc(Cl)cc3F)C2=O)cc1` [Example 7, 4-(3-(4-chloro-2-fluorophenyl)-2-oxoimidazolidin-1-yl)benzenesulfonamide], on recombinant human CAIX, the inhibition constant Ki was < 10 nM. In addition, the “Ki (nM) CAXII” value on recombinant human CAXII was “++ (“++” represents the 100 nM<Ki<10 nM)”.

As to `NS(=O)(=O)c1ccc(N2CCN(c3ccc(F)cc3)C2=O)cc1` [Example 21, 4-(3-(4-fluorophenyl)-2-oxoimidazolidin-1-yl)benzenesulfonamide], at recombinant human CAIX, the Ki is < 10 nM. Also, on recombinant human CAXII, the “Ki (nM) CAXII” value is given as “++ (“++” represents the 100 nM<Ki<10 nM)”.

On to `NS(=O)(=O)c1ccc(N2CCN(c3ccc(F)c(Cl)c3)C2=O)cc1` [Example 22, 4-(3-(3-chloro-4-fluorophenyl)-2-oxoimidazolidin-1-yl)benzenesulfonamide], for which the Ki on recombinant human CAIX is < 10 nM. The “Ki (nM) CAXII” value on recombinant human CAXII was “++ (“++” represents the 100 nM<Ki<10 nM)”.

`NS(=O)(=O)c1ccc(N2CCN(c3ccc(F)cn3)C2=O)cc1` [Example 28.1, 4-(3-(5-fluoropyridin-2-yl)-2-oxoimidazolidin-1-yl)benzenesulfonamide]: the inhibition constant Ki at recombinant human CAIX and on recombinant human CAXII was > 100000 nM throughout.

Take `COCCOc1ccc(N2CCN(c3ccc(S(N)(=O)=O)cc3)C2=O)cc1` [Example 14, 4-(3-(4-(2-methoxyethoxy)phenyl)-2-oxoimidazolidin-1-yl)benzenesulfonamide]: the Ki on recombinant human CAIX and at recombinant human CAXII was < 10 nM each time.

For the compound `CCCCOc1ccc(N2CCN(c3ccc(S(N)(=O)=O)cc3)C2=O)cc1` [Example 15, 4-(3-(4-butoxyphenyl)-2-oxoimidazolidin-1-yl)benzenesulfonamide], on recombinant human CAIX, the Ki was < 10 nM. Besides, the “Ki (nM) CAXII” value at recombinant human CAXII is “++ (“++” represents the 100 nM<Ki<10 nM)”.

`NS(=O)(=O)c1ccc(N2CCN(C3CCCC3)C2=O)cc1` [Example 4, 4-(3-cyclopentyl-2-oxoimidazolidin-1-yl)benzenesulfonamide]: the “Ki (nM) CAIX” value on recombinant human CAIX is “++ (“++” represents the 100 nM<Ki<10 nM)”. For the same compound, at recombinant human CAXII, the “Ki (nM) CAXII” value is listed as “++ (“++” represents the 100 nM<Ki<10 nM)”.

Consider `NS(=O)(=O)c1ccc(N2CCN(Cc3ccc(F)cc3)C2=O)cc1` [Example 9, 4-(3-(4-fluorobenzyl)-2-oxoimidazolidin-1-yl)benzenesulfonamide], for which, on recombinant human CAIX, the “Ki (nM) CAIX” value is on record as “++ (“++” represents the 100 nM<Ki<10 nM)”. In addition, the “Ki (nM) CAXII” value on recombinant human CAXII is recorded as “++ (“++” represents the 100 nM<Ki<10 nM)”.

As for `NS(=O)(=O)c1ccc(N2CCN(c3cc(F)cc(F)c3)C2=O)cc1` [Example 23, 4-(3-(3,5-difluorophenyl)-2-oxoimidazolidin-1-yl)benzenesulfonamide], the Ki on recombinant human CAIX and on recombinant human CAXII was < 10 nM each time.

For the compound `NS(=O)(=O)c1ccc(N2CCN(c3cccc(F)c3)C2=O)cc1` [Example 1, 4-(3-(3-fluorophenyl)-2-oxoimidazolidin-1-yl)benzenesulfonamide], the “Ki (nM) CAIX” value at recombinant human CAIX was “++ (“++” represents the 100 nM<Ki<10 nM)”. In addition, the “Ki (nM) CAXII” value on recombinant human CAXII is listed as “++ (“++” represents the 100 nM<Ki<10 nM)”.

With `NS(=O)(=O)c1ccc(N2CCN(c3cc(C(F)(F)F)ccc3Cl)C2=O)cc1` [Example 12, 4-(3-(2-chloro-5-(trifluoromethyl)phenyl)-2-oxoimidazolidin-1-yl)benzenesulfonamide], the Ki at recombinant human CAIX and on recombinant human CAXII was < 10 nM throughout.

In the case of `NS(=O)(=O)c1ccc(N2CCN(c3ccc(Cl)c(F)c3)C2=O)cc1` [Example 27, 4-(3-(4-chloro-3-fluorophenyl)-2-oxoimidazolidin-1-yl)benzenesulfonamide], the inhibition constant (Ki) on recombinant human CAIX was < 10 nM. The “Ki (nM) CAXII” value on recombinant human CAXII was “++ (“++” represents the 100 nM<Ki<10 nM)”.

With `NS(=O)(=O)c1ccc(N2CCN(c3ccc(Br)cc3F)C2=O)cc1` [Example 6, 4-(3-(4-bromo-2-fluorophenyl)-2-oxoimidazolidin-1-yl)benzenesulfonamide], on recombinant human CAIX, the “Ki (nM) CAIX” value is recorded as “++ (“++” represents the 100 nM<Ki<10 nM)”. Further, the “Ki (nM) CAXII” value at recombinant human CAXII is recorded as “++ (“++” represents the 100 nM<Ki<10 nM)”.

`CN1CCN(c2ccc(N3CCN(c4ccc(S(N)(=O)=O)cc4)C3=O)c(F)c2)CC1` [Example 28.2, 4-(3-(2-fluoro-4-(4-methylpiperazin-1-yl)phenyl)-2-oxoimidazolidin-1-yl)benzenesulfonamide]: the Ki on recombinant human CAIX is > 100000 nM; at recombinant human CAXII it was < 10 nM.

Take `NS(=O)(=O)c1ccc(N2CCN(c3ccc(C(F)(F)F)cc3)C2=O)cc1` [Example 8, 4-(2-oxo-3-(4-(trifluoromethyl)phenyl)imidazolidin-1-yl)benzenesulfonamide]: the Ki on recombinant human CAIX and at recombinant human CAXII was < 10 nM in each case.

Regarding `CC(=O)c1ccc(N2CCN(c3ccc(S(N)(=O)=O)cc3)C2=O)cc1` [Example 17, 4-(3-(4-acetylphenyl)-2-oxoimidazolidin-1-yl)benzenesulfonamide], the inhibitory constant (Ki) on recombinant human CAIX and on recombinant human CAXII was < 10 nM in each case.

`CC(C)c1ccccc1N1CCN(c2ccc(S(N)(=O)=O)cc2)C1=O` [Example 11, 4-(3-(2-isopropylphenyl)-2-oxoimidazolidin-1-yl)benzenesulfonamide]: the inhibitory constant (Ki) at recombinant human CAIX and on recombinant human CAXII was < 10 nM in each case.

Regarding `COc1ccc(N2CCN(c3ccc(S(N)(=O)=O)cc3)C2=O)c(F)c1` [Example 25, 4-(3-(2-fluoro-4-methoxyphenyl)-2-oxoimidazolidin-1-yl)benzenesulfonamide], the Ki on recombinant human CAIX was < 10 nM. For the same compound, the “Ki (nM) CAXII” value at recombinant human CAXII is “++ (“++” represents the 100 nM<Ki<10 nM)”.

Take `NS(=O)(=O)c1ccc(N2CCN(c3ccc(N4CCOCC4)cc3F)C2=O)cc1` [Example 28.3, 4-(3-(2-fluoro-4-morpholinophenyl)-2-oxoimidazolidin-1-yl)benzenesulfonamide]: the Ki at recombinant human CAIX and on recombinant human CAXII was < 10 nM each time.

`COc1cc(N2CCN(c3ccc(S(N)(=O)=O)cc3)C2=O)cc(OC)c1OC` [Example 3, 4-(2-oxo-3-(3,4,5-trimethoxyphenyl)imidazolidin-1-yl)benzenesulfonamide]: the Ki at recombinant human CAIX is < 10 nM. The “Ki (nM) CAXII” value on recombinant human CAXII was “++ (“++” represents the 100 nM<Ki<10 nM)”.

As for `N#Cc1ccc(N2CCN(c3ccc(S(N)(=O)=O)cc3)C2=O)cc1` [Example 16, 4-(3-(4-cyanophenyl)-2-oxoimidazolidin-1-yl)benzenesulfonamide], the Ki at recombinant human CAIX and on recombinant human CAXII was < 10 nM throughout.

For the compound `NS(=O)(=O)c1ccc(N2CCN(c3ccc(F)c(F)c3)C2=O)cc1` [Example 24, 4-(3-(3,4-difluorophenyl)-2-oxoimidazolidin-1-yl)benzenesulfonamide], at recombinant human CAIX, the inhibitory constant (Ki) is < 10 nM. On recombinant human CAXII, the “Ki (nM) CAXII” value was “++ (“++” represents the 100 nM<Ki<10 nM)”.
